# In patent US20260053861A1, “CELL COMPOSITIONS AND METHODS OF USING THE SAME” (THE REGENTS OF THE UNIVERSITY OF CALIFORNIA, priority 2022, published 2026):
# Counter-ions that a name gives are not always drawn.
# System: hPSC-SCs
# Conditions: not given
row,SMILES,z.score.t
1,CN1CCC2=C[C@H](O)[C@H]3OC(=O)c4cc5c(cc4[C@H]3[C@@H]21)OCO5 [Hippeastrine hydrobromide],1.178
2,CN1CCCN(C(c2ccccc2)c2ccc(Cl)cc2)CC1 (stereo not drawn) [Homochlorcyclizine dihydrochloride],−1.66
3,COc1ccc2c(c1OC)C(=O)O[C@@H]2[C@H]1c2cc3c(cc2CCN1C)OCO3 [Hydrastine hydrochloride],−0.4139
4,CN1[C@@H]2CC[C@H]1C[C@@H](OC(=O)[C@H](CO)c1ccccc1)C2 [Hyoscyamine (L)],−0.528
5,O=C(NCNC(=O)NC1C(=O)NC(=O)N1CO)NC1C(=O)NC(=O)N1CO (stereo not drawn) [Imidurea],1.224
6,CC(=O)N(CC(O)CN(C(C)=O)c1c(I)c(C(=O)NCC(O)CO)c(I)c(C(=O)NCC(O)CO)c1I)c1c(I)c(C(=O)NCC(O)CO)c(I)c(C(=O)NCC(O)CO)c1I (stereo not drawn) [Iodixanol],0.7539
7,CC(C)[N+]1(C)[C@@H]2CC[C@H]1CC(OC(=O)C(CO)c1ccccc1)C2.[Br-] (stereo partly drawn) [Ipratropium bromide],−0.649
8,CC[C@H](C)[C@H]1O[C@]2(CC[C@@H]1C)C[C@@H]1C[C@@H](C/C=C(\C)[C@@H](O[C@H]3C[C@H](OC)[C@@H](O[C@H]4C[C@H](OC)[C@@H](O)[C@H](C)O4)[C@H](C)O3)[C@@H](C)/C=C/C=C3\CO[C@@H]4[C@H](O)C(C)=C[C@@H](C(=O)O1)[C@]34O)O2 [Ivermectin],−1.866
9,CCN1C[C@]2(C)CC[C@H](O)[C@]34C1[C@@H](C[C@H]23)[C@@]1(O)C[C@H](OC)[C@H]2C[C@@H]4[C@@H]1[C@H]2O [Karakoline],1.53
10,COC1=CC(=O)O[C@@H](/C=C/c2ccccc2)C1 [Kawain],0.9109
11,Cl.OC1CCCCC1N1CCC(c2ccccc2)CC1 (stereo not drawn) [L(−)-vesamicol hydrochloride],0.6964
12,CC(=O)O[C@H]1C[C@H](O[C@H]2[C@@H](O)C[C@H](O[C@H]3[C@@H](O)C[C@H](O[C@H]4CC[C@@]5(C)[C@H](CC[C@@H]6[C@@H]5C[C@@H](O)[C@]5(C)[C@@H](C7=CC(=O)OC7)CC[C@]65O)C4)O[C@@H]3C)O[C@@H]2C)O[C@H](C)[C@H]1O[C@@H]1O[C@H](CO)[C@@H](O)[C@H](O)[C@H]1O [Lanatoside C],−2.334
13,CC1=CC(=O)C2=C(C)CC[C@@H]3[C@H](OC(=O)[C@H]3C)[C@@H]12 [Leucomisine],1.214
14,C[C@H](N)[C@H](O)c1ccc(O)c(O)c1 [Levonordefrin],0.1916
15,CCC(=O)O[C@@](Cc1ccccc1)(c1ccccc1)[C@@H](C)CN(C)C [Levopropoxyphene napsylate],−0.5351
16,CCN(CC)CC(=O)Nc1c(C)cccc1C.Cl [LidocaÂ<ne hydrochloride],−0.01953

# Same assay, conditions: HTS viability of hPSC-SCs in the presence of 30 mM glucose; Prestwick library; Table S4
row,SMILES,z.score.t
1,CC1CC(OC(=O)c2ccccc2O)CC(C)(C)C1 (stereo not drawn) [Homosalate],−0.751
2,CCN(CC)CCNc1ccc(CO)c2sc3ccccc3c(=O)c12 [Hycanthone],−0.2904
3,NNc1nncc2ccccc12 [Hydralazine hydrochloride],1.472
4,CN1CCc2cc3c(cc2C1O)OCO3 (stereo not drawn) [Hydrastinine hydrochloride],1.785
5,NS(=O)(=O)c1cc2c(cc1Cl)NCNS2(=O)=O [Hydrochlorothiazide],0.1742
6,C[C@]12CCC(=O)C=C1CC[C@@H]1[C@@H]2[C@@H](O)C[C@@]2(C)[C@H]1CC[C@]2(O)C(=O)CO [Hydrocortisone base],1.76
7,COc1c2c(cc3c1OCO3)CCN(C)C2 [Hydrocotarnine hydrobromide],1.168
8,NS(=O)(=O)c1cc2c(cc1C(F)(F)F)NCNS2(=O)=O [Hydroflumethiazide],−0.1092
9,CC[C@H]1CN2CC[C@H]1C[C@H]2[C@H](O)c1ccnc2ccc(OC)cc12 [Hydroquinine hydrobromide hydrate],0.1131
10,OCCOCCN1CCN(C(c2ccccc2)c2ccc(Cl)cc2)CC1 (stereo not drawn) [Hydroxyzine dihydrochloride],−0.3011
11,Cc1cc(=O)oc2cc(O)ccc12 [Hymecromone],0.9525
12,c1ccc2c(c1)OCC(C1=NCCN1)O2 (stereo not drawn) [Idazoxan hydrochloride],−0.03362
13,O=c1[nH]c(=O)n([C@H]2C[C@H](O)[C@@H](CO)O2)cc1I [Idoxuridine],0.8757
14,O=P1(NCCCl)OCCCN1CCCl (stereo not drawn) [Ifosfamide],0.1469
15,C[C@@H](O)[C@H]1C(=O)N2C(C(=O)O)=C(SCCN=CN)C[C@H]12 [Imipenem],0.767
16,CN(C)CCCN1c2ccccc2CCc2ccccc21 [Imipramine hydrochloride],−0.7013
17,CC1Cc2ccccc2N1NC(=O)c1ccc(Cl)c(S(N)(=O)=O)c1 (stereo not drawn) [Indapamide],0.02534
18,COc1ccc2c(c1)c(CC(=O)O)c(C)n2C(=O)c1ccc(Cl)cc1 [Indomethacin],1.045
19,CC(C(=O)O)c1ccc(N2Cc3ccccc3C2=O)cc1 (stereo not drawn) [Indoprofen],0.1916

row,SMILES,z.score.t
1,CC(=O)N(CC(C)C(=O)O)c1c(I)cc(I)c(N)c1I (stereo not drawn) [Iocetamic acid],0.9178
2,O=C(CCCCC(=O)Nc1c(I)cc(I)c(C(=O)O)c1I)Nc1c(I)cc(I)c(C(=O)O)c1I [Iodipamide],0.5976
3,CC(=O)N(CC(O)CO)c1c(I)c(C(=O)NCC(O)CO)c(I)c(C(=O)NCC(O)CO)c1I (stereo not drawn) [Iohexol],−0.07901
4,C[C@H](O)C(=O)Nc1c(I)c(C(=O)NC(CO)CO)c(I)c(C(=O)NC(CO)CO)c1I [Iopamidol],−1.025
5,CCC(Cc1c(I)cc(I)c(N)c1I)C(=O)O (stereo not drawn) [Iopanoic acid],1.279
6,COCC(=O)Nc1c(I)c(C(=O)NCC(O)CO)c(I)c(C(=O)N(C)CC(O)CO)c1I (stereo not drawn) [Iopromide],−0.5992
7,O=C(NCC(O)CO)c1c(I)c(C(=O)NCC(O)CO)c(I)c(N(CCO)C(=O)CO)c1I (stereo not drawn) [Ioversol],−0.5789
8,CNC(=O)c1c(I)c(C(=O)NCC(=O)Nc2c(I)c(C(=O)O)c(I)c(C(=O)NCCO)c2I)c(I)c(N(C)C(C)=O)c1I [Ioxaglic acid],1.475
9,Cc1cc(C(=O)NNCc2ccccc2)no1 [Isocarboxazid],−0.9569
10,Clc1ccc(C(Cn2ccnc2)OCc2c(Cl)cccc2Cl)c(Cl)c1 (stereo not drawn) [Isoconazole],−1.91
11,COc1ccc2c(c1O)-c1c(OC)c(OC)cc3c1[C@H](C2)N(C)CC3 [Isocorydine (+)],1.845
12,CC(=O)OCC(=O)[C@@]1(O)CC[C@H]2[C@@H]3CCC4=CC(=O)C=C[C@]4(C)[C@@]3(F)[C@@H](O)C[C@@]21C [Isoflupredone acetate],−0.3156
13,CNC(C)CCC=C(C)C.CNC(C)CCC=C(C)C.O=C(O)[C@@H](O)[C@H](O)[C@H](O)[C@@H](O)C(=O)O [Isometheptene mucate],1.27
14,NNC(=O)c1ccncc1 [Isoniazid],0.5041
15,CC(C)[N+](C)(CCC(C(N)=O)(c1ccccc1)c1ccccc1)C(C)C [Isopropamide iodide],0.3675
16,Cc1c(NC(C)C)c(=O)n(-c2ccccc2)n1C.Cl [Isopyrin hydrochloride],−0.2359
17,CC1=C(/C=C/C(C)=C/C=C/C(C)=C\C(=O)O)C(C)(C)CCC1 [Isotretinoin],0.4346
18,Cc1cc(NC(=O)C2=C(O)c3ccccc3S(=O)(=O)N2C)no1 [Isoxicam],1.24
19,CC(COc1ccccc1)NC(C)C(O)c1ccc(O)cc1 (stereo not drawn) [Isoxsuprine hydrochloride],−0.1687

row,SMILES,z.score.t
1,COC(=O)C1=C(C)NC(C)=C(C(=O)OC(C)C)C1c1cccc2nonc12 (stereo not drawn) [Isradipine],0.6428
2,CO[C@@H]1[C@@H](O[C@@H]2O[C@H](C)[C@@H](O[C@H]3C[C@@](C)(O)[C@@H](OC(=O)CC(C)C)[C@H](C)O3)[C@H](N(C)C)[C@H]2O)[C@@H](CC=O)C[C@@H](C)[C@@H](O)/C=C/C=C/C[C@@H](C)OC(=O)C[C@H]1OC(C)=O [Josamycin],−0.827
3,O=c1c(O)c(-c2ccc(O)cc2)oc2cc(O)cc(O)c12 [Kaempferol],−1.014
4,NC[C@H]1O[C@H](O[C@H]2[C@H](O)[C@@H](O[C@H]3O[C@H](CO)[C@@H](O)[C@H](N)[C@H]3O)[C@H](N)C[C@@H]2N)[C@H](O)[C@@H](O)[C@@H]1O.O=S(=O)(O)O [Kanamycin A sulfate],0.07052
5,CC(=O)N1CCN(c2ccc(OCC3COC(Cn4ccnc4)(c4ccc(Cl)cc4Cl)O3)cc2)CC1 (stereo not drawn) [Ketoconazole],1.669
6,CC(C(=O)O)c1cccc(C(=O)c2ccccc2)c1 (stereo not drawn) [Ketoprofen],−1.014
7,O=C(c1ccccc1)c1ccc2n1CCC2C(=O)O (stereo not drawn) [Ketorolac tromethamine],0.8465
8,CN1CCC(=C2c3ccccc3CC(=O)c3sccc32)CC1 [Ketotifen fumarate],−0.7415
9,COc1c2occc2c(OC)c2c(=O)cc(C)oc12 [Khellin],0.7913
10,CC(CCc1ccccc1)NCC(O)c1ccc(O)c(C(N)=O)c1 (stereo not drawn) [Labetalol hydrochloride],0.7665
11,O=C(O)[C@H](O)[C@@H](O)[C@H](O[C@@H]1O[C@H](CO)[C@H](O)[C@H](O)[C@H]1O)[C@H](O)CO [Lactobionic acid],1.942
12,Cc1c(OCC(F)(F)F)ccnc1C[S+]([O-])c1nc2ccccc2[nH]1 (stereo not drawn) [Lansoprazole],1.808
13,CC[C@@H](C(=O)[C@@H](C)[C@@H](O)[C@H](C)CCc1ccc(C)c(O)c1C(=O)O)[C@H]1O[C@](CC)([C@H]2CC[C@](O)(CC)[C@H](C)O2)C[C@@H]1C [Lasalocid sodium salt],−2.368
14,Cc1oncc1C(=O)Nc1ccc(C(F)(F)F)cc1 [Leflunomide],0.9178
15,N#Cc1ccc(C(c2ccc(C#N)cc2)n2cncn2)cc1 [Letrozole],−0.4953
16,c1ccc([C@H]2CN3CCSC3=N2)cc1 [Levamisole hydrochloride],0.4064
17,C[C@@H]1CN([C@H]2CC[C@](C#N)(c3ccc(F)cc3)CC2)CC[C@]1(C(=O)O)c1ccccc1 [Levocabastine hydrochloride],−0.6516
18,N[C@@H](Cc1ccc(O)c(O)c1)C(=O)O [Levodopa],−1.365
